This note sets out measurements from PubChem BioAssay AID248 (DTP/NCI, 2004).

The subject of the test is L1210 leukemia ip in BDF1 mice, survival T/C. Description: NCI In Vivo Anticancer Drug Screen. Data for tumor model L1210 Leukemia (intraperitoneal) in B6D2F1 (BDF1) mice. Conditions: endpoint: mean survival time, higher = longer survival. The method in brief:
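Value reflects the ratio of survival in compound-treated mice to survival in vehicle-treated controls, with both groups carrying the same transplanted tumor.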

Where [1] appears, read: dose: 150.0 mg/kg/injection, schedule: Q01DX001 (ip), vehicle: saline.
[2] abbreviates: dose: 100.0 mg/kg/injection, schedule: Q01DX009 (ip), vehicle: saline with Tween-80.
Setting [3] is: dose: 200.0 mg/kg/injection, schedule: Q01DX009 (ip), vehicle: saline with Tween-80.
The mark [4] stands for this setting: dose: 100.0 mg/kg/injection, schedule: Q04DX003 (ip), vehicle: Klucel (hydroxypropylcellulose) (HPC).
Setting [5] is: dose: 200.0 mg/kg/injection, schedule: Q04DX003 (ip), vehicle: Klucel (hydroxypropylcellulose) (HPC).
Setting [6] is: dose: 100.0 mg/kg/injection, schedule: Q04DX003 (ip), vehicle: saline.
The mark [7] stands for this setting: dose: 200.0 mg/kg/injection, schedule: Q04DX003 (ip), vehicle: saline.
[8] abbreviates: dose: 400.0 mg/kg/injection, schedule: Q04DX003 (ip), vehicle: saline.
The mark [9] stands for this setting: dose: 50.0 mg/kg/injection, schedule: Q01DX009 (ip), vehicle: saline.
Where [10] appears, read: dose: 400.0 mg/kg/injection, schedule: Q01DX009 (ip), vehicle: saline with Tween-80.
The mark [11] stands for this setting: dose: 100.0 mg/kg/injection, schedule: Q01DX001 (ip), vehicle: saline.
[12] abbreviates: dose: 200.0 mg/kg/injection, schedule: Q01DX001 (ip), vehicle: saline.
Where [13] appears, read: dose: 400.0 mg/kg/injection, schedule: Q01DX001 (ip), vehicle: saline.

The structures appear in SMILES notation. Values joined by “and” are separate entries in the source; they are usually repeats but may differ in a detail not shown here. Equal values may be shown once. Toxic doses and inconclusive results are not listed.

As to `CC[N+]1(C)CCOCC1`, the T/C reads like this: (dose: 75.0 mg/kg/injection, schedule: Q01DX001 (ip), vehicle: saline) 96 % of control and 94 % of control and 107 % of control; under setting [1], 94 % of control and 100 % of control and 98 % of control; (dose: 300.0 mg/kg/injection, schedule: Q01DX001 (ip), vehicle: saline) 96 % of control and 98 % of control.
`CNc1nc(Cl)nc2ccccc12`: the T/C (dose: 50.0 mg/kg/injection, schedule: Q01DX009 (ip), vehicle: saline with Tween-80) was 105 % of control; the T/C under setting [2] was 112 % of control; the T/C under setting [3] was 102 % of control.
For the compound `CCCCCCCCCCCCCCCC1CCCC(C)N1` (centres undefined), the T/C was 104 % of control (dose: 6.25 mg/kg/injection, schedule: Q04DX002 (ip), vehicle: saline with Tween-80); 96 % of control (dose: 12.5 mg/kg/injection, schedule: Q04DX002 (ip), vehicle: saline with Tween-80); 100 % of control (dose: 25.0 mg/kg/injection, schedule: Q04DX002 (ip), vehicle: saline with Tween-80).
Take `CCC(=O)C(CCN(C)C)c1ccccn1` (centres undefined): the T/C runs as follows: (dose: 20.0 mg/kg/injection, schedule: Q01DX Z (ip), vehicle: saline) 103 % of control; (dose: 30.0 mg/kg/injection, schedule: Q01DX Z (ip), vehicle: saline) 91 % of control; (dose: 44.0 mg/kg/injection, schedule: Q01DX Z (ip), vehicle: saline) 91 % of control; (dose: 66.0 mg/kg/injection, schedule: Q01DX Z (ip), vehicle: saline) 93 % of control.
Turning to `O=[N+]([O-])c1ccc(C(Br)Br)cc1`, the T/C under setting [4] was 93 % of control and the T/C under setting [5] is 93 % of control.
Turning to `CCC(C)C1NC(=O)C2C(CCN2C(=O)C(NC(=O)C(Cc2ccccc2)N(C)C)C(C)CC)Oc2ccc(cc2)/C=C\NC1=O` (centres undefined), the T/C was 94 % of control under setting [6], 97 % of control under setting [7] and 92 % of control under setting [8].
Take `CN(C)c1ccc(NC2=NCCO2)cc1`: the T/C by setting is: (dose: 12.5 mg/kg/injection, schedule: Q04DX003 (ip), vehicle: saline) 95 % of control; (dose: 25.0 mg/kg/injection, schedule: Q01DX009 (ip), vehicle: saline) 104 % of control; (dose: 25.0 mg/kg/injection, schedule: Q04DX003 (ip), vehicle: saline) 102 % of control; under setting [9], 95 % of control; (dose: 50.0 mg/kg/injection, schedule: Q04DX003 (ip), vehicle: saline) 98 % of control; under setting [6], 97 % of control. The T/C under setting [7] is 87 % of control.
With `Cn1c(=O)n(C)c2ccccc21`, the T/C under setting [9] was 110 % of control; the T/C (dose: 100.0 mg/kg/injection, schedule: Q01DX009 (ip), vehicle: saline) was 106 % of control; the T/C under setting [6] is 108 % of control; the T/C under setting [7] was 108 % of control.
For the compound `C[N+](C)(C)C1CCCCCCC(=O)NC1` (centres undefined), the T/C runs as follows: (dose: 75.0 mg/kg/injection, schedule: Q01DX009 (ip), vehicle: saline) 101 % of control; (dose: 150.0 mg/kg/injection, schedule: Q01DX009 (ip), vehicle: saline) 92 % of control; (dose: 300.0 mg/kg/injection, schedule: Q01DX009 (ip), vehicle: saline) 109 % of control.
For `CCn1c2ccccc2c2cc(N=C3C(=O)N(C)c4ccccc43)ccc21`, the T/C runs as follows: (dose: 100.0 mg/kg/injection, schedule: Q01DX001 (ip), vehicle: carboxymethylcellulose (CMC)) 95 % of control; (dose: 200.0 mg/kg/injection, schedule: Q01DX001 (ip), vehicle: carboxymethylcellulose (CMC)) 95 % of control; (dose: 400.0 mg/kg/injection, schedule: Q01DX001 (ip), vehicle: carboxymethylcellulose (CMC)) 95 % of control.
As for `CCOC(=O)c1[nH]c2ccsc2c1CN(C)C`, the T/C is 102 % of control under setting [4]; 91 % of control under setting [5]; 97 % of control (dose: 400.0 mg/kg/injection, schedule: Q04DX003 (ip), vehicle: Klucel (hydroxypropylcellulose) (HPC)).
In the case of `COc1ccc(C)cc1NC(=S)NC(=O)/C=C/c1ccccc1`, the T/C (dose: 100.0 mg/kg/injection, schedule: Q01DX001 (ip), vehicle: saline with Tween-80) was 90 % of control; the T/C under setting [2] was 93 % of control and 100 % of control; the T/C (dose: 100.0 mg/kg/injection, schedule: Q04DX002 (ip), vehicle: saline with Tween-80) was 93 % of control and 94 % of control; the T/C (dose: 100.0 mg/kg/injection, schedule: Q04DX003 (ip), vehicle: saline with Tween-80) is 91 % of control; the T/C (dose: 200.0 mg/kg/injection, schedule: Q01DX001 (ip), vehicle: saline with Tween-80) is 91 % of control; the T/C under setting [3] is 93 % of control and 88 % of control. In addition, the T/C is, setting by setting: (dose: 200.0 mg/kg/injection, schedule: Q04DX002 (ip), vehicle: saline with Tween-80) 94 % of control and 90 % of control; (dose: 200.0 mg/kg/injection, schedule: Q04DX003 (ip), vehicle: saline with Tween-80) 93 % of control; (dose: 400.0 mg/kg/injection, schedule: Q01DX001 (ip), vehicle: saline with Tween-80) 90 % of control; under setting [10], 100 % of control and 103 % of control; (dose: 400.0 mg/kg/injection, schedule: Q04DX002 (ip), vehicle: saline with Tween-80) 97 % of control and 89 % of control; (dose: 400.0 mg/kg/injection, schedule: Q04DX003 (ip), vehicle: saline with Tween-80) 91 % of control.
On to `ClC(Cl)(Cl)c1cc(C(Cl)(Cl)Cl)nc(NCCCN2CCCC2)n1`, for which the T/C is, setting by setting: under setting [2], 99 % of control; under setting [3], 96 % of control; under setting [10], 95 % of control.
With `COc1cccc(/C=C/[N+](=O)[O-])c1OC`, the T/C (dose: 17.5 mg/kg/injection, schedule: Q01DX009 (ip), vehicle: saline with Tween-80) is 90 % of control; the T/C (dose: 35.0 mg/kg/injection, schedule: Q01DX009 (ip), vehicle: saline with Tween-80) was 101 % of control; the T/C (dose: 50.0 mg/kg/injection, schedule: Q01DX001 (ip), vehicle: other) is 103 % of control; the T/C under setting [9] was 107 % of control; the T/C (dose: 70.0 mg/kg/injection, schedule: Q01DX009 (ip), vehicle: saline with Tween-80) was 95 % of control; the T/C (dose: 100.0 mg/kg/injection, schedule: Q01DX001 (ip), vehicle: other) is 97 % of control. Further, the T/C is, setting by setting: under setting [6], 108 % of control; (dose: 200.0 mg/kg/injection, schedule: Q01DX001 (ip), vehicle: other) 103 % of control; under setting [7], 100 % of control.
`OCC1OC(n2cnc3c(NO)nc(NO)nc32)C(O)C1O` (centres undefined): the T/C (dose: 30.0 mg/kg/injection, schedule: Q01DX009 (ip), vehicle: saline) was 151 % of control and the T/C under setting [1] was 115 % of control.
Consider `CCOC(=O)c1nnc(-c2ccc(C)cc2)[nH]c1=O`, for which the T/C reads like this: (dose: 50.0 mg/kg/injection, schedule: Q01DX009 (ip), vehicle: Klucel (hydroxypropylcellulose) (HPC)) 95 % of control; (dose: 100.0 mg/kg/injection, schedule: Q01DX009 (ip), vehicle: Klucel (hydroxypropylcellulose) (HPC)) 95 % of control; (dose: 200.0 mg/kg/injection, schedule: Q01DX009 (ip), vehicle: Klucel (hydroxypropylcellulose) (HPC)) 106 % of control.
As to `CC1(C)/C(=C\S(=O)(=O)O)C2CCC1C2` (centres undefined), the T/C is, setting by setting: under setting [11], 105 % of control; under setting [6], 110 % of control; under setting [12], 105 % of control; under setting [7], 98 % of control; under setting [13], 103 % of control; under setting [8], 101 % of control.
As to `Nc1c(Cl)ccc2c(Cl)ccnc12`, the T/C is 111 % of control under setting [11]; 89 % of control (dose: 150.0 mg/kg/injection, schedule: Q04DX003 (ip), vehicle: other); 98 % of control under setting [12]; 97 % of control (dose: 300.0 mg/kg/injection, schedule: Q04DX003 (ip), vehicle: other); 104 % of control under setting [13].
Regarding `CC(=O)c1c(OC(C)C(=O)O)ccc2ccccc12` (centres undefined), the T/C is 98 % of control under setting [11], 101 % of control under setting [12] and 107 % of control under setting [13].
Consider `O=[N+]([O-])c1ccc(N/N=C2\CCC3CC23)c([N+](=O)[O-])c1` (centres undefined), for which the T/C reads like this: (dose: 25.0 mg/kg/injection, schedule: Q04DX002 (ip), vehicle: Klucel (hydroxypropylcellulose) (HPC)) 105 % of control; (dose: 50.0 mg/kg/injection, schedule: Q04DX002 (ip), vehicle: Klucel (hydroxypropylcellulose) (HPC)) 102 % of control; (dose: 100.0 mg/kg/injection, schedule: Q04DX002 (ip), vehicle: Klucel (hydroxypropylcellulose) (HPC)) 97 % of control.
